A word on the IC50: it is the point on the concentration scale where inhibition reaches its midpoint.

In brackets after ≈: the same amount, converted by molar mass. Where only a bound is given, the exact number is not on record here.

This note sets out measurements from ChEMBL document CHEMBL1155715, “New natural epothilones from Sorangium cellulosum, strains So ce90/B2 and So ce90/D13: isolation, structure elucidation, and SAR studies” (J Nat Prod, 2001).

One assay relates to L929. The assay can be described thus: Cytotoxicity against mouse L929 cells.
Conditions: not given
Format: cell-based.
Take `C/C(=C\c1csc(C)n1)[C@@H]1C/C=C/CCC[C@H](C)[C@H](O)[C@@H](C)C(=O)[C@@H](C)[C@@H](O)CC(=O)O1`: the IC50 is 0.4 µg/mL (≈ 0.863 µM).

Compound `C/C(=C\c1csc(C)n1)[C@@H]1C/C=C/CCC[C@H](C)[C@H](O)[C@@H](C)C(=O)[C@H](C)[C@@H](O)CC(=O)O1` registered an IC50 of 0.08 µg/mL (≈ 0.173 µM).

The assay is the same for the next values; noted with them: read-out: IC50.
As to `C/C(=C\c1csc(C)n1)[C@@H](O)C/C=C\CCC[C@H](C)[C@H](O)[C@@H](C)C(=O)C(C)C`, the IC50 amounted to 0.8 µg/mL (≈ 1.96 µM).

As to `CCC(=O)[C@@H](C)CCC/C=C\C[C@H](O)/C(C)=C/c1csc(C)n1`, the IC50 was > 4 µg/mL.

As to `CCC(=O)[C@@H](C)CCC/C(C)=C\C[C@H](O)/C(C)=C/c1csc(C)n1`, the IC50 is > 4 µg/mL.

As for `C/C(=C\c1csc(C)n1)[C@@H]1C[C@@H]2O[C@@H]2CCC[C@H](C)[C@H](O)[C@@H](C)C(=O)[C@H](C)[C@@H](O)CC(=O)O1` [EPOTHILONE A1], the IC50 was 0.02 µg/mL (≈ 0.0417 µM).

For `C/C(=C\c1csc(C)n1)[C@@H]1C[C@@H]2O[C@@H]2CCC[C@H](C)[C@H](O)[C@@H](C)C(=O)[C@@H](C)[C@@H](O)CC(=O)O1` [EPOTHILONE A2], the IC50 was 0.007 µg/mL (≈ 0.0146 µM).

Regarding `Cc1nc(/C=C/[C@@H]2C[C@@H]3O[C@@H]3CCC[C@H](C)[C@H](O)[C@@H](C)C(=O)C(C)(C)[C@@H](O)CC(=O)O2)cs1` [EPOTHILONE A8], the IC50 is 0.02 µg/mL (≈ 0.0417 µM).

`Cc1nc(/C=C(\CO)[C@@H]2C[C@@H]3O[C@@H]3CCC[C@H](C)[C@H](O)[C@@H](C)C(=O)C(C)(C)[C@@H](O)CC(=O)O2)cs1` [EPOTHILONE A9]: the IC50 was 0.1 µg/mL (≈ 0.196 µM).

`C/C(=C\c1csc(C)n1)[C@@H]1C[C@@H]2O[C@@H]2CCC[C@H](C)[C@H](O)[C@@H](C)C(=O)C(C)(C)[C@@H](O)CC(=O)O1` [EPOTHILONE A]: the half-maximal inhibitory concentration (IC50) is 0.004 µg/mL (≈ 0.0081 µM).

`C/C(=C\c1csc(C)n1)[C@@H]1C/C=C\CCC[C@H](C)[C@H](O)[C@@H](C)C(=O)[C@H](C)[C@@H](O)CC(=O)O1` [EPOTHILONE C1]: the IC50 stood at 0.9 µg/mL (≈ 1.94 µM).

As to `C/C(=C\c1csc(C)n1)[C@@H]1C/C=C\CCC[C@H](C)[C@H](O)[C@@H](C)C(=O)[C@@H](C)[C@@H](O)CC(=O)O1` [EPOTHILONE C2], the IC50 was found to be 0.8 µg/mL (≈ 1.73 µM).

As for `C/C(=C\c1csc(C)n1)[C@@H]1C/C=C\CCC[C@H](C)[C@H](O)CC(=O)C(C)(C)[C@@H](O)CC(=O)O1` [EPOTHILONE C3], the 50% inhibitory concentration (IC50) amounted to 1.5 µg/mL (≈ 3.24 µM).

With `C/C(=C\c1csc(C)n1)[C@@H]1C/C=C\CCCC[C@H](O)[C@@H](C)C(=O)C(C)(C)[C@@H](O)CC(=O)O1` [EPOTHILONE C4], the half-inhibitory concentration (IC50) worked out at 0.8 µg/mL (≈ 1.73 µM).

As to `C/C(=C\c1csc(C)n1)[C@@H]1C/C=C\CC/C=C(\C)[C@H](O)[C@@H](C)C(=O)C(C)(C)[C@@H](O)CC(=O)O1` [EPOTHILONE C5], the IC50 came to 1.5 µg/mL (≈ 3.15 µM).

Take `C/C(=C\c1csc(C)n1)[C@@H]1C/C=C\C=C\C[C@H](C)[C@H](O)[C@@H](C)C(=O)C(C)(C)[C@@H](O)CC(=O)O1` [EPOTHILONE C6]: the IC50 came to 0.12 µg/mL (≈ 0.252 µM).

On to `C/C(=C\c1csc(C)n1)[C@H]1OC(=O)C[C@H](O)C(C)(C)C(=O)[C@H](C)[C@@H](O)[C@@H](C)CCC/C=C\[C@@H]1O` [EPOTHILONE C7], for which the IC50 stood at 0.025 µg/mL (≈ 0.0506 µM).

With `Cc1nc(/C=C/[C@@H]2C/C=C\CCC[C@H](C)[C@H](O)[C@@H](C)C(=O)C(C)(C)[C@@H](O)CC(=O)O2)cs1` [EPOTHILONE C8], the IC50 amounted to 0.25 µg/mL (≈ 0.539 µM).

Regarding `Cc1nc(/C=C(\CO)[C@@H]2C/C=C\CCC[C@H](C)[C@H](O)[C@@H](C)C(=O)C(C)(C)[C@@H](O)CC(=O)O2)cs1` [EPOTHILONE C9], the IC50 came out at 0.2 µg/mL (≈ 0.405 µM).

For the compound `C/C(=C\c1csc(C)n1)[C@@H]1C/C=C\CCC[C@H](C)[C@H](O)[C@@H](C)C(=O)C(C)(C)[C@@H](O)CC(=O)O1` [EPOTHILONE C], the IC50 was 0.06 µg/mL (≈ 0.126 µM).

For the compound `C/C1=C/C[C@@H](/C(C)=C/c2csc(C)n2)OC(=O)C[C@H](O)[C@@H](C)C(=O)[C@H](C)[C@@H](O)[C@@H](C)CCC1` [EPOTHILONE D1], the IC50 turned out to be 0.035 µg/mL (≈ 0.0733 µM).

On to `C/C1=C/C[C@@H](/C(C)=C/c2csc(C)n2)OC(=O)C[C@H](O)[C@H](C)C(=O)[C@H](C)[C@@H](O)[C@@H](C)CCC1` [EPOTHILONE D2], for which the IC50 was 0.007 µg/mL (≈ 0.0147 µM).

In the case of `C/C1=C/C[C@@H](/C(C)=C/c2csc(C)n2)OC(=O)C[C@H](O)C(C)(C)C(=O)[C@H](C)[C@@H](O)/C(C)=C/CC1` [EPOTHILONE D5], the IC50 was determined as 0.2 µg/mL (≈ 0.408 µM).

As to `C/C1=C/C[C@@H](/C(C)=C/c2csc(C)n2)OC(=O)C[C@H](O)C(C)(C)C(=O)[C@H](C)[C@@H](O)[C@@H](C)CCC1` [EPOTHILONE D], the IC50 was determined as 0.02 µg/mL (≈ 0.0407 µM).

Regarding `C/C(=C\c1csc(CO)n1)[C@@H]1C[C@@H]2O[C@@H]2CCC[C@H](C)[C@H](O)[C@@H](C)C(=O)C(C)(C)[C@@H](O)CC(=O)O1` [EPOTHILONE E], the IC50 stood at 0.01 µg/mL (≈ 0.0196 µM).

With `C/C(=C\c1csc(CO)n1)[C@@H]1C[C@@H]2O[C@]2(C)CCC[C@H](C)[C@H](O)[C@@H](C)C(=O)C(C)(C)[C@@H](O)CC(=O)O1` [EPOTHILONE F], the IC50 came out at 0.0015 µg/mL (≈ 0.00286 µM).

For `C/C(=C\c1coc(C)n1)[C@@H]1C[C@@H]2O[C@@H]2CCC[C@H](C)[C@H](O)[C@@H](C)C(=O)C(C)(C)[C@@H](O)CC(=O)O1` [EPOTHILONE G1], the concentration for half-maximal inhibition (IC50) turned out to be 0.006 µg/mL (≈ 0.0126 µM).

On to `C/C(=C\c1coc(C)n1)[C@@H]1C[C@@H]2O[C@]2(C)CCC[C@H](C)[C@H](O)[C@@H](C)C(=O)C(C)(C)[C@@H](O)CC(=O)O1` [EPOTHILONE G2], for which the IC50 worked out at 0.001 µg/mL (≈ 0.00203 µM).

With `C/C(=C\c1coc(C)n1)[C@@H]1C/C=C\CCC[C@H](C)[C@H](O)[C@@H](C)C(=O)C(C)(C)[C@@H](O)CC(=O)O1` [EPOTHILONE H1], the IC50 was determined as 0.12 µg/mL (≈ 0.26 µM).

For the compound `C/C1=C/C[C@@H](/C(C)=C/c2coc(C)n2)OC(=O)C[C@H](O)C(C)(C)C(=O)[C@H](C)[C@@H](O)[C@@H](C)CCC1` [EPOTHILONE H2], the IC50 stood at 0.011 µg/mL (≈ 0.0231 µM).

With `C/C(=C\c1csc(C)n1)[C@@H]1C/C=C\CCCCC[C@H](C)[C@H](O)[C@@H](C)C(=O)C(C)(C)[C@@H](O)CC(=O)O1` [EPOTHILONE I1], the IC50 stood at 0.8 µg/mL (≈ 1.58 µM).

Regarding `C/C(=C\c1csc(C)n1)[C@@H]1C/C=C\CCCC(C)C[C@H](C)[C@H](O)[C@@H](C)C(=O)C(C)(C)[C@@H](O)CC(=O)O1` (some centres not stated) [EPOTHILONE I2], the 50% inhibitory concentration (IC50) turned out to be 0.4 µg/mL (≈ 0.77 µM).

As to `C/C1=C/C[C@@H](/C(C)=C/c2csc(C)n2)OC(=O)C[C@H](O)C(C)(C)C(=O)[C@H](C)[C@@H](O)[C@@H](C)CC(C)CCC1` (some centres not stated) [EPOTHILONE I3], the IC50 stood at 0.6 µg/mL (≈ 1.12 µM).

Take `C/C(=C\c1csc(C)n1)[C@@H]1C/C=C\CCCC(C)C[C@H](C)[C@H](O)[C@@H](C)C(=O)[C@@H](C)[C@@H](O)CC(=O)O1` (some centres not stated) [EPOTHILONE I4]: the half-maximal inhibitory concentration (IC50) came to 0.3 µg/mL (≈ 0.593 µM).

For `C/C1=C/C[C@@H](/C(C)=C/c2csc(C)n2)OC(=O)C[C@H](O)[C@H](C)C(=O)[C@H](C)[C@@H](O)[C@@H](C)CC(C)CCC1` (some centres not stated) [EPOTHILONE I5], the IC50 turned out to be 0.1 µg/mL (≈ 0.192 µM).

As to `C/C1=C/C[C@@H](/C(C)=C/c2csc(C)n2)OC(=O)C[C@H](O)[C@@H](C)C(=O)[C@H](C)[C@@H](O)[C@@H](C)CC(C)CCC1` (some centres not stated) [EPOTHILONE I6], the IC50 was 0.6 µg/mL (≈ 1.15 µM).

Regarding `C/C(=C\c1csc(C)n1)[C@@H]1C[C@@H]2O[C@]2(C)CCC[C@H](C)[C@H](O)[C@@H](C)C(=O)C(C)(C)[C@@H](O)CC(=O)O1` [PATUPILONE], the IC50 is 0.001 µg/mL (≈ 0.00197 µM).
